pIC50, pKd: −log10 of the molar value.
Tests used:
[1] = test system: CAL cells; experiment: Proliferation (cell counting), CAL; format: cell-based; details: 100 µM
Procedure: (§1) FADU, BHY, SAS and CAL cell lines were obtained from ATCC-LGC and were cultured in DMEM (Invitrogen, Germany) supplemented with 10% of heat activated bovine serum (FBS, PAA, Germany), 1% of glutamine, 1% of penicillin-streptomycin (Invitrogen, Germany). To measure proliferation, SCCHN cells were split, reseeded (5 × 10^5 in 25 cm^2 flasks) and counted at the indicated time points. Cells were then replated at the initial density. The fold increase in cell number was calculated, all given results are based on triplicate experiments. To assess cell death 5 × 10^5 cells were stained with propidium iodide (PI, Sigma, Germany). Following incubation, cells were washed, resuspended in PBS, and analysed by flow cytometry. The fraction of PI-positive cells is reported as dead cell fraction.
(§2) Figure 3. […] Cells were incubated with compound 2 for 48 h and then subjected to PI staining and FACS analysis. PI-positive cell fraction as measure of cell death is reported. (B) Four SCCHN cell lines were incubated with 100 μM of compound 2 and counted on the indicated days. Experiments in triplicates, fold growth shown. (C) EGFR expression of SCCHN cell lines. EGFR high and low as detected by western blot analysis (D) The SCCHN cell lines were incubated with 100 μM of compound 2 for 72 h. Percent PI positive cells are given. Experiments in triplicates.

[2] = test system: FADU cells; experiment: Proliferation (cell counting), FADU; format: cell-based; details: 100 µM
Procedure: as §1, §2

[3] = test system: SAS cells; experiment: Proliferation (cell counting), SAS; format: cell-based; details: 100 µM
Procedure: as §1, §2

[4] = test system: CAL cells; experiment: Cell killing, PI staining and FACS, CAL; format: cell-based; details: 100 µM, 72 h
Procedure: as §1, §2

[5] = test system: BHY cells; experiment: Proliferation (cell counting), BHY; format: cell-based; details: 100 µM
Procedure: as §1, §2

[6] = test system: EGFR (pEGFR, pERK, p-AKT) in BHY cells; experiment: Western blot of EGFR downstream targets in BHY cells; format: cell-based; details: 100 μM
Procedure: Protein extracts (50 μg per lane) were electrophoretically separated on SDS-PAGE gels, transferred to membranes (Protran, Schleicher & Schuell, Dassel, Germany) and blotted with specific antibodies (actin, aurora A, aurora B: all from Sigma, Munich, Germany; S10-HH3: Millipore, Schwalbach, Germany; EGFR: Santa Cruz, Heidelberg, Germany; pEGFR: Invitrogen, Darmstadt, Germany; pAKT, pERK: both from New England Biolabs, Frankfurt, Germany).
Figure 4. Effects of compound 2 on EGFR and aurora kinases in growing SCCHN cell lines (A) Western blot analysis of EGFR (pEGFR, pERK, p-AKT) and aurora A (p-HH3) downstream target proteins following incubation with 100 μM compound 2 for the indicated time points in BHY and FADU SCCHN cell lines. (B) BHY and CAL cell lines treated for the indicated time points with 200 nM cetuximab. Western blot analysis of EGFR downstream targets. (long exposure and short exposure). […] Western blot analysis of p-HH3 at the indicated time points. Asterisk (*) represents unspecific band.

[7] = molecular target: EGFR (Homo sapiens, UniProt P00533); experiment: DiscoverX competition binding assay, EGFR; parameters: purchased DiscoverX Corporation (assay run externally by the vendor); details: read-out: Binding constant (Kd) EGFR
Procedure: (§3) The assay was performed externally at DiscoverX Corporation using a competition binding assay that quantitatively measures the ability of a compound to compete with an immobilised, active-site directed ligand[24]. The assay is performed by combining three components: DNA-tagged kinase, immobilised ligand and a test compound. The ability of the test compound to compete with the immobilised ligand was measured via quantitative PCR of the DNA tag. An 11-point 3-fold serial dilution of each test compound was prepared in 100% of DMSO at 100× final test concentration and subsequently diluted to 1× in the assay (final DMSO concentration = 1%). […] Binding constants (Kd) were calculated with a standard dose-response curve using the Hill equation.
(§4) Binding Affinities for EGFR, AURKA and AURKB
(§5) The assay was performed externally at DiscoverX Corporation using a competition binding assay that quantitatively measures the ability of a compound to compete with an immobilized, active-site directed ligand for target kinases AURKA, AURKB and EGFR.23 The assay is performed by combining three components: DNA-tagged kinase; immobilized ligand; and a test compound. The ability of the test compound to compete with the immobilized ligand was measured via quantitative PCR of the DNA tag. […] Compound Kds were determined using a compound top […]

[8] = test system: BHY cells; experiment: Cell killing, PI staining and FACS, BHY; format: cell-based
Procedure: as §1, §2

[9] = molecular target: T1, AURKA (Homo sapiens, UniProt O14965); experiment: DiscoverX competition binding assay, AURKA; details: read-out: Binding constant (Kd) AURKA
T1 construct: purchased DiscoverX Corporation (assay run externally by the vendor)
T1 sequence (O14965 1-403): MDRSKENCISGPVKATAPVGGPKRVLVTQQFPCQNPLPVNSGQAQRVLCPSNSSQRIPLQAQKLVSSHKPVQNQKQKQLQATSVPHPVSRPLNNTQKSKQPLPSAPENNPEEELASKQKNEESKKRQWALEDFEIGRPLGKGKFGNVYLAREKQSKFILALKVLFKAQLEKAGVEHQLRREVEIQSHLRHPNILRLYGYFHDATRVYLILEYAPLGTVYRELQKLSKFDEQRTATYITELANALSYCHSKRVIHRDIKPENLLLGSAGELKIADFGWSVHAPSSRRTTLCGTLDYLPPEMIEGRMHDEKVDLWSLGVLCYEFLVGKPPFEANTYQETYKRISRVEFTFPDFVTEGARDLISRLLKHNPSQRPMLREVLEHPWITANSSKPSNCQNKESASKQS
Procedure: as §3, §4, §5

[10] = test system: SAS cells; experiment: Cell killing, PI staining and FACS, SAS; format: cell-based; details: 100 µM, 72 h
Procedure: as §1, §2

Chain of EGFR (P00533 25-1210): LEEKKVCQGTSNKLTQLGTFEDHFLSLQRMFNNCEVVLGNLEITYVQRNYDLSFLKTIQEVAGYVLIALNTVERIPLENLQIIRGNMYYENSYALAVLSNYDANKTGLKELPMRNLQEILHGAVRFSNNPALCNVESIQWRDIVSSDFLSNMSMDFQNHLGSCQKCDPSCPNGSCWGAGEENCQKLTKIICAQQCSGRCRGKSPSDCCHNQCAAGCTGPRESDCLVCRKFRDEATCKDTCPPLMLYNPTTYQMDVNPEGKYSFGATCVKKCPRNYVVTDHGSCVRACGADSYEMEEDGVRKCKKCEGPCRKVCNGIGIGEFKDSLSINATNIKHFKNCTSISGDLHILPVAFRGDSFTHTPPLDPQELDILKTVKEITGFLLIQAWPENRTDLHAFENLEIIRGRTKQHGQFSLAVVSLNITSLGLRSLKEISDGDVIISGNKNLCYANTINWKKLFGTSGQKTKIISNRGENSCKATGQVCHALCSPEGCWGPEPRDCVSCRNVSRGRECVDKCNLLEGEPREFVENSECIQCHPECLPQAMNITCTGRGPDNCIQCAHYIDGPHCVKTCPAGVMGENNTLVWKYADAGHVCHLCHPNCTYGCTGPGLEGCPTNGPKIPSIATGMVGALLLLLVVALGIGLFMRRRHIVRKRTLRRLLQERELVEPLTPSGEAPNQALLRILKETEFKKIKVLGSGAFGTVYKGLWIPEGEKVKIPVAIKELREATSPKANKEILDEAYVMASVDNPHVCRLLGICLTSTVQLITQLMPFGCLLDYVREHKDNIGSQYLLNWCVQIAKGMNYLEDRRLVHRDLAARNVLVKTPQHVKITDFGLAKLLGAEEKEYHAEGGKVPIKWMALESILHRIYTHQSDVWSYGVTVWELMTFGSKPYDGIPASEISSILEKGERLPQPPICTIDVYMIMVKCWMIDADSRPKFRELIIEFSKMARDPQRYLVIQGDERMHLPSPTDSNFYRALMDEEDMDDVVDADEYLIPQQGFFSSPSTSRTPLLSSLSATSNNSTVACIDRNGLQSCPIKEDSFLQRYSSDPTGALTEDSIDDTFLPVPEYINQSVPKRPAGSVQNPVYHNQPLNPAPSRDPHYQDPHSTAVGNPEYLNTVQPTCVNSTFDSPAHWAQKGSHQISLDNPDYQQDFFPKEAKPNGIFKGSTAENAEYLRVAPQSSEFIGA

How did the “Cell growth (fold growth)” value [1] turn out when `Brc1cccc(Nc2ncnc3[nH]ccc23)c1` [Compound 2, N^4-(3-bromophenyl)-7H-pyrrolo[2,3-d]pyrimidine-4-amine] was run?
The value was “completely inhibited cell growth”.

What about the “Cell growth (fold growth)” value [2] of the same molecule?
The value was “completely inhibited cell growth”.

What about the “Cell growth (fold growth)” value [3] of the same molecule?
Its value is “completely inhibited cell growth”.

What about the “Cell killing (PI positive cells)” value [4] of the same molecule?
Its value is “efficient cell killing”.

And the “Cell growth (fold growth)” value [5]?
Its value is “completely inhibited cell growth”.

And the “EGFR-mediated phosphorylation steps (pEGFR, pERK, p-AKT)” value [6]?
Its value is “modified”.

And the pKd [7]?
The pKd was 7.17.

And the “Cell killing (PI positive cells)” value ([8]; 100 µM, 72 h)?
Its value is “efficient cell killing”.

And the pIC50 ([8]; 48 h, read-out: IC50 cellular killing (PI-positive fraction))?
The pIC50 was 3.82.

And the pKd [9]?
Its pKd is 5.47.

What about the “Cell killing (PI positive cells)” value [10] of the same molecule?
The value was “efficient cell killing”.

From publication PMC6009956, “Design, synthesis and biological activity of N^4-phenylsubstituted-7H-pyrrolo[2,3-d]pyrimidin-4-amines as dual inhibitors of aurora kinase A and epidermal growth factor receptor kinase” (Journal of Enzyme Inhibition and Medicinal Chemistry, 2017)
